Values quoted from earlier work, collected in US10952981B2, “Liquid pharmaceutical compositions of baclofen for oral administration” (SLAYBACK PHARMA LLC, priority 2019, dated 2021).

SMILES: NCC(CC(=O)O)c1ccc(Cl)cc1 (stereo not drawn) [Baclofen, 4-amino-3-(4-chlorophenyl)-butanoic acid]
- Concentration of baclofen obtainable (aqueous 0.1N HCl or 0.1N NaOH, Ahuja (1985)): greater than 20 mg/mL
- Equilibrium concentration (as referred to for Allen et al., 1996, Johnson and Hart, 1993): 4.3 mg/mL
- Solubility at near neutral pH (at a concentration of 2 mg/mL, near neutral pH): not soluble
- Solubility in chloroform (chloroform): insoluble
- Solubility in methanol (methanol): very slightly soluble
- Solubility in water (water): slightly soluble
